Results: ChEMBL document CHEMBL4184181, “Evaluation of alkylating pyrrole-imidazole polyamide conjugates by a novel method for high-throughput sequencer” (Bioorg Med Chem, 2018)
Active and inactive are the calls of the source. No cut-off for these calls is given here.

How the values were obtained:
[1] = organism: Bos taurus; assay: Alkylating activity at CACCTCA sequence of calf thymus DNA assessed as enrichment ratio by measuring ratio of sample to input control after 1 hr by MERMADE method; assay type: functional
[2] = organism: Bos taurus; assay: Alkylating activity at ACCTCAA sequence of calf thymus DNA assessed as enrichment ratio by measuring ratio of sample to input control after 1 hr by MERMADE method; assay type: functional
[3] = organism: Bos taurus; assay: Alkylating activity at ACTCCTC sequence of calf thymus DNA assessed as enrichment ratio by measuring ratio of sample to input control after 1 hr by MERMADE method; assay type: functional
[4] = organism: Bos taurus; assay: Alkylating activity at ACCTCAG sequence of calf thymus DNA assessed as enrichment ratio by measuring ratio of sample to input control after 1 hr by MERMADE method; assay type: functional
[5] = organism: Bos taurus; assay: Alkylating activity at GGTGAGA sequence of calf thymus DNA assessed as enrichment ratio by measuring ratio of sample to input control after 1 hr by MERMADE method; assay type: functional
[6] = organism: Bos taurus; assay: Alkylating activity at ACCTCTA sequence of calf thymus DNA assessed as enrichment ratio by measuring ratio of sample to input control after 1 hr by MERMADE method; assay type: functional
[7] = organism: Bos taurus; assay: Alkylating activity at GAGGTTA sequence of calf thymus DNA assessed as enrichment ratio by measuring ratio of sample to input control after 1 hr by MERMADE method; assay type: functional
[8] = organism: Bos taurus; assay: Alkylating activity at GTGAGGA sequence of calf thymus DNA assessed as enrichment ratio by measuring ratio of sample to input control after 1 hr by MERMADE method; assay type: functional
[9] = organism: Bos taurus; assay: Alkylating activity at ACCTCAC sequence of calf thymus DNA assessed as enrichment ratio by measuring ratio of sample to input control after 1 hr by MERMADE method; assay type: functional
[10] = organism: Bos taurus; assay: Alkylating activity at ATACCTC sequence of calf thymus DNA assessed as enrichment ratio by measuring ratio of sample to input control after 1 hr by MERMADE method; assay type: functional
[11] = organism: Bos taurus; assay: Alkylating activity at CTCCACC sequence of calf thymus DNA assessed as enrichment ratio by measuring ratio of sample to input control after 1 hr by MERMADE method; assay type: functional
[12] = organism: Bos taurus; assay: Alkylating activity at CCTCACC sequence of calf thymus DNA assessed as enrichment ratio by measuring ratio of sample to input control after 1 hr by MERMADE method; assay type: functional
[13] = organism: Bos taurus; assay: Alkylating activity at GAGGTGA sequence of calf thymus DNA assessed as enrichment ratio by measuring ratio of sample to input control after 1 hr by MERMADE method; assay type: functional
[14] = organism: Bos taurus; assay: Alkylating activity at AGGTGAG sequence of calf thymus DNA assessed as enrichment ratio by measuring ratio of sample to input control after 1 hr by MERMADE method; assay type: functional
[15] = organism: Bos taurus; assay: Alkylating activity at TACCTCA sequence of calf thymus DNA assessed as enrichment ratio by measuring ratio of sample to input control after 1 hr by MERMADE method; assay type: functional
[16] = organism: Bos taurus; assay: Alkylating activity at CTACCTC sequence of calf thymus DNA assessed as enrichment ratio by measuring ratio of sample to input control after 1 hr by MERMADE method; assay type: functional
[17] = organism: Bos taurus; assay: Alkylating activity at CCACCTC sequence of calf thymus DNA assessed as enrichment ratio by measuring ratio of sample to input control after 1 hr by MERMADE method; assay type: functional
[18] = organism: Bos taurus; assay: Alkylating activity at CGACCTC sequence of calf thymus DNA assessed as enrichment ratio by measuring ratio of sample to input control after 1 hr by MERMADE method; assay type: functional
[19] = organism: Bos taurus; assay: Alkylating activity at ACCTCAT sequence of calf thymus DNA assessed as enrichment ratio by measuring ratio of sample to input control after 1 hr by MERMADE method; assay type: functional
[20] = organism: Bos taurus; assay: Alkylating activity at CCACTCC sequence of calf thymus DNA assessed as enrichment ratio by measuring ratio of sample to input control after 1 hr by MERMADE method; assay type: functional
[21] = organism: Bos taurus; assay: Alkylating activity at CCTCAAG sequence of calf thymus DNA assessed as enrichment ratio by measuring ratio of sample to input control after 1 hr by MERMADE method; assay type: functional
[22] = organism: Bos taurus; assay: Alkylating activity at CCTCTAC sequence of calf thymus DNA assessed as enrichment ratio by measuring ratio of sample to input control after 1 hr by MERMADE method; assay type: functional
[23] = organism: Bos taurus; assay: Alkylating activity at TACACTA sequence of calf thymus DNA assessed as enrichment ratio by measuring ratio of sample to input control after 1 hr by MERMADE method; assay type: functional
[24] = organism: Bos taurus; assay: Alkylating activity at CACTAGA sequence of calf thymus DNA assessed as enrichment ratio by measuring ratio of sample to input control after 1 hr by MERMADE method; assay type: functional
[25] = organism: Bos taurus; assay: Alkylating activity at calf thymus DNA containing adenine at seventh position of motif by MR method; assay type: functional
[26] = organism: Bos taurus; assay: Alkylating activity at ACCATTA sequence of calf thymus DNA assessed as enrichment ratio by measuring ratio of sample to input control after 1 hr by MERMADE method; assay type: functional
[27] = organism: Bos taurus; assay: Alkylating activity at ACCACTA sequence of calf thymus DNA assessed as enrichment ratio by measuring ratio of sample to input control after 1 hr by MERMADE method; assay type: functional
[28] = organism: Bos taurus; assay: Alkylating activity at ATCTCTA sequence of calf thymus DNA assessed as enrichment ratio by measuring ratio of sample to input control after 1 hr by MERMADE method; assay type: functional
[29] = organism: Bos taurus; assay: Alkylating activity at AGTGGTA sequence of calf thymus DNA assessed as enrichment ratio by measuring ratio of sample to input control after 1 hr by MERMADE method; assay type: functional
[30] = organism: Bos taurus; assay: Alkylating activity at ATCACTA sequence of calf thymus DNA assessed as enrichment ratio by measuring ratio of sample to input control after 1 hr by MERMADE method; assay type: functional
[31] = organism: Bos taurus; assay: Alkylating activity at TAGTGAA sequence of calf thymus DNA assessed as enrichment ratio by measuring ratio of sample to input control after 1 hr by MERMADE method; assay type: functional
[32] = organism: Bos taurus; assay: Alkylating activity at CCACTAG sequence of calf thymus DNA assessed as enrichment ratio by measuring ratio of sample to input control after 1 hr by MERMADE method; assay type: functional
[33] = organism: Bos taurus; assay: Alkylating activity at CCTCTAG sequence of calf thymus DNA assessed as enrichment ratio by measuring ratio of sample to input control after 1 hr by MERMADE method; assay type: functional
[34] = organism: Bos taurus; assay: Alkylating activity at CTCTAGA sequence of calf thymus DNA assessed as enrichment ratio by measuring ratio of sample to input control after 1 hr by MERMADE method; assay type: functional
[35] = organism: Bos taurus; assay: Alkylating activity at ACTAGTG sequence of calf thymus DNA assessed as enrichment ratio by measuring ratio of sample to input control after 1 hr by MERMADE method; assay type: functional
[36] = organism: Bos taurus; assay: Alkylating activity at CCTCTAA sequence of calf thymus DNA assessed as enrichment ratio by measuring ratio of sample to input control after 1 hr by MERMADE method; assay type: functional
[37] = organism: Bos taurus; assay: Alkylating activity at CTAGTGA sequence of calf thymus DNA assessed as enrichment ratio by measuring ratio of sample to input control after 1 hr by MERMADE method; assay type: functional
[38] = organism: Bos taurus; assay: Alkylating activity at CCACTAA sequence of calf thymus DNA assessed as enrichment ratio by measuring ratio of sample to input control after 1 hr by MERMADE method; assay type: functional
[39] = organism: Bos taurus; assay: Alkylating activity at TCACTAA sequence of calf thymus DNA assessed as enrichment ratio by measuring ratio of sample to input control after 1 hr by MERMADE method; assay type: functional
[40] = system: A549; assay: Cytotoxicity against human A549 cells after 48 hrs by WST8 assay; assay type: functional, cell-based; settings: A549, 48 h

## CC(=O)Nc1cn(C)c(C(=O)Nc2cn(C)c(C(=O)Nc3cn(C)c(C(=O)Nc4cn(C)c(C(=O)NCC[C@@H](NC(=O)CCOCCOCCOCCOCCOCCOCCOCCOCCOCCOCCOCCOCCNC(=O)CCCC[C@@H]5SC[C@@H]6NC(=O)N[C@@H]65)C(=O)Nc5ccc(C(=O)Nc6cn(C)cc6C(=O)Nc6ccc7[nH]c(C(=O)N8CC(CCl)c9c8cc(O)c8ccccc98)cc7c6)n5C)n4)n3)n2)n1 (stereo partly drawn)
[1]
  Ratio: 2.44
[2]
  Ratio: 2.07
[3]
  Ratio: 2
[4]
  Ratio: 2.05
[5]
  Ratio: 2.06
[6]
  Ratio: 2.01
[7]
  Ratio: 2.21
[8]
  Ratio: 2.02
[9]
  Ratio: 2.69
[10]
  Ratio: 2.02
[11]
  Ratio: 2.06
[12]
  Ratio: 2.65
[13]
  Ratio: 2.06
[14]
  Ratio: 2.24
[15]
  Ratio: 2.48
[16]
  Ratio: 2.12
[17]
  Ratio: 2.4
[18]
  Ratio: 2
[19]
  Ratio: 2.17
[20]
  Ratio: 2.04

## CC(=O)Nc1cn(C)c(C(=O)Nc2cn(C)c(C(=O)Nc3cn(C)c(C(=O)Nc4cn(C)c(C(=O)NCC[C@@H](NC(=O)CCOCCOCCOCCOCCOCCOCCOCCOCCOCCOCCOCCOCCNC(=O)CCCC[C@@H]5SC[C@@H]6NC(=O)N[C@@H]65)C(=O)Nc5ccc(C(=O)Nc6cn(C)cc6C(=O)Nc6cn(C)cc6C(=O)Nc6ccc7[nH]c(C(=O)N8CC(CCl)c9c8cc(O)c8ccccc98)cc7c6)n5C)n4)n3)n2)n1 (stereo partly drawn)
[21]
  Ratio: 3.19
[22]
  Ratio: 3.33
[2]
  Ratio: 4.19
[23]
  Ratio: 3.63
[24]
  Ratio: 3.64
[25]
  Activity: Active
[6]
  Ratio: 6.96
[26]
  Ratio: 3.28
[27]
  Ratio: 5.11
[28]
  Ratio: 3.46
[29]
  Ratio: 3.37
[30]
  Ratio: 4.94
[31]
  Ratio: 4.34
[32]
  Ratio: 4.13
[33]
  Ratio: 4.45
[34]
  Ratio: 3.68
[35]
  Ratio: 3.82
[36]
  Ratio: 3.79
[37]
  Ratio: 3.82
[38]
  Ratio: 3.16
[39]
  Ratio: 3.61

## CC(=O)Nc1cn(C)c(C(=O)Nc2cn(C)c(C(=O)Nc3cn(C)c(C(=O)Nc4cn(C)c(C(=O)NCC[C@@H](NC(=O)OC(C)(C)C)C(=O)Nc5ccc(C(=O)Nc6cn(C)cc6C(=O)Nc6cn(C)cc6C(=O)Nc6ccc7[nH]c(C(=O)N8CC(CCl)c9c8cc(O)c8ccccc98)cc7c6)n5C)n4)n3)n2)n1 (stereo partly drawn)
[40]
  IC50: 0.063 µM

## CC(=O)Nc1cn(C)c(C(=O)Nc2cn(C)c(C(=O)Nc3cn(C)c(C(=O)Nc4cn(C)c(C(=O)NCC[C@@H](NC(=O)OC(C)(C)C)C(=O)Nc5ccc(C(=O)Nc6cn(C)cc6C(=O)Nc6ccc7[nH]c(C(=O)N8CC(CCl)c9c8cc(O)c8ccccc98)cc7c6)n5C)n4)n3)n2)n1 (stereo partly drawn)
[40]
  IC50: 0.12 µM
